The text below walks through data of US20220323614A1, “KRAS-SPECIFIC CYCLIC PEPTIDES, COMPOSITIONS, AND METHODS OF USING AND MAKING” (Indi Molecular, Inc., priority 2021, published 2022).

By AUC(0-inf) is commonly meant the area under the concentration-time curve extrapolated to infinity. Lower therefore signals low exposure. Usually AUC(0-t) stands for exposure summed from dosing to a finite time, without extrapolation to infinity. A low value points to low exposure. Usually Cmax stands for the peak of the concentration-time curve. One may read the Tmax as the time from dosing to the highest level. As usually defined, the bioavailability is dose-corrected exposure relative to a reference, in per cent.

Where two headings read alike, the source gives them in different places. Where a SMILES comes first, the peptide text is derived from it. Bridges are numbered along the chain shown (N, C = ends). Triazole bridges read from a SMILES are 1,4-linked. Where no end group is shown, it is not given here. [ ]: non-standard residue; d: D form. The star is where a group is joined. Phe(4-guanidino) = N=C(N)Nc1ccc(C[C@H](N)C(=O)O)cc1; dLys(N3) = [N-]=[N+]=NCCCC[C@@H](N)C(=O)O; dPhe(4-Cl) = N[C@H](Cc1ccc(Cl)cc1)C(=O)O; Lys(N3) = [N-]=[N+]=NCCCC[C@H](N)C(=O)O; Morpholinoacetyl = O=C(CN1CCOCC1)*; Palmitoyl = CCCCCCCCCCCCCCCC(=O)*; dPra = C#CC[C@@H](N)C(=O)O; Pra = C#CC[C@H](N)C(=O)O

In series [1] the test system is AsPC1 (G12D mutant) cell line, BxPC3 (wild type), and SW 1990 (G12D mutant). The note with it: confocal microscopy, Streptavidin-phycoerythrin (PE) visualization. As to the method: A biotinylated KRAS(G12D) targeted cyclic peptide and an equivalent agent with membrane targeting capability were tested for membrane association using confocal microscopy. Binding to AsPC1 (G12D mutant) cell line, BxPC3 (wild type), and SW 1990 (G12D mutant) were compared.

The next series deals with T1, KRAS (G12D) (Homo sapiens, UniProt P01116, G12D).
T1 construct: decreasing or depleting levels of KRAS (G12D) in pancreatic cancer cells; endogenous in cells
Description: Western blot of KRAS (G12D) levels in pancreatic cell lysate. The series is classed as cell-based. The note with it: pancreatic cancer cells incubated with the peptide. The source says:
The disclosed cyclic peptides can be used, for example, in methods for inhibiting the KRAS (G12D) oncoprotein. Such methods can include treating cancer cells having the KRAS (G12D) mutation. […] In some forms, a cyclic peptide of Formula I can be used to inhibit KRAS (G12D) expressed in any cancer cell. For example, the KRAS (G12D) oncoprotein has been identified in pancreatic, colorectal, lung, biliary tract, and ovarian cancer cells.
Background: Immunoblotting shows a protein as a band on a membrane.

Series [2] can be described thus: mouse pharmacokinetics of Indi-199 by IV, IP and PO. The series is classed as in vivo. The settings on record: for half-life: read-out: T½ (converted). An excerpt:
FIG. 14 is a graph of mouse pharmacokinetics of Indi-199, an example of the disclosed cyclic peptides, by different administration routes (IV, IP, and PO).

A short description of series [3]: tolerability of Indi-199 in PBS. The series is classed as in vivo, mouse. The settings on record: simple formulation (PBS).
The subject of a further series is pERK in AsPC-1 cells. Briefly: pERK levels in AsPC-1 cells, Western blot normalized to tubulin (pERK_G12D). The series is classed as cell-based. The settings on record: FIG. 3, incubated for 12 hours. As to the method: FIG. 3 is a graph of pERK levels measured in BxPC-3 cells (first eight bars) and AsPC-1 cells (last eight bars) in the presence of different ligands or controls. For each cell type, the graph bars are, from left to right: cell only, DMSO 1.25%, BI-2852, KRpep-2d, NH2-wkyf (SEQ ID NO:46), Ac-wkyf (SEQ ID NO:46), Pal-wkyf (SEQ ID NO:46), Ac-wkyf-Lys(Pal) (SEQ ID NO:46). The levels of pERK are normalized to tubulin. The cells were grown overnight, treated with the ligands, incubated for 12 hours, lysed, gel electrophoresed, and Western blotted. Phosphorylation of ERK is a KRAS-dependent signaling target. […] BI-2852 and Krpep-2d are two positive controls developed by Boehringer Ingelheim and Takeda.
FIG. 5 is a graph of pERK inhibition in BxPC-3 cells (first eight bars) and AsPC-1 cells (last eight bars) in the presence of the substituted ligands of FIG. 3. For each cell type, the graph bars are, from left to right: DMSO 0.5%, KRpep-2d, Ac-wkyf-Lys(Pal) (SEQ ID NO:46), Ac-w(Dab)yf-Lys(Pal), Ac-wk(4-Br-f)f-Lys(Pal), Ac-wky(4-Br-f)-Lys(Pal), Ac-wky(2-Nal)-Lys(Pal), wkyf (SEQ ID NO:46).
Tables 15A-15E provide a summary of the activity and effects of various of the disclosed wkyf-based cyclic peptides. […] MTT_G12D used AsPc-1 at 5 μM. MTT_WT used BxPC-3 at 5 μM. pERK_G12D used AsPC-1 at 4 μM for 12 hours. pERK_WT used BxPC-3 at 4 μM for 12 hours.

Series [4] relates to AsPC-1 (G12D) and BxPC-3 (WT). Briefly: spheroid proliferation assay using CellTiter-Glo Assay. It is filed as cell-based. The protocol:
FIGS. 2A-2B are graphs of spheroid proliferation assay of AsPC-1 (G12D) and BxPC-3 (WT) using CellTiter-Glo Assay. […] The ligand assayed was Ac-wkyf-Lys(Pal) (SEQ ID NO:46). BxPC-3 and AxPC-1 were cultured as spheroids to compare the cell viability to that observed under adherent conditions. […] These conditions more closely parallel the tumor microenvironment.
A general note: Cellular ATP, detected with luciferase, serves as a proxy for viable cell number.

Setting [5] is: in vivo, mouse, 20 mg/kg IP, 4 mg/mL in PBS.
[6] abbreviates: in vivo, mouse, 20 mg/kg IV bolus, 4 mg/mL in PBS.
Setting [7] is: in vivo, mouse, 50 mg/kg PO, 5 mg/mL in PBS.

Regarding Biotin-wky(4-Cl-F)-Lys(Pal), in series [1], the membrane association result is “demonstrated membrane association”.
For the molecule “QNGnfY (QN[Phe(4-guanidino)]Y; also: cyclic, closure not given here, D-amino acids, places not given here)”, the “levels of KRAS (G12D)” value with KRAS (G12D) is “capable of decreasing or depleting levels of KRAS (G12D)”.
For the molecule `CCCCCCCCCCCCCCCC(=O)NCCCC[C@H](NC(=O)[C@@H]1CCCCn2cc(nn2)C[C@H](NC(=O)CN2CCOCC2)C(=O)N[C@H](Cc2c[nH]c3ccccc23)C(=O)N[C@H](CCCCN)C(=O)N[C@H](Cc2ccc(O)cc2)C(=O)N[C@H](Cc2ccc(Cl)cc2)C(=O)N1)C(N)=O` [Indi-199] (Morpholinoacetyl-[Pra][dW][dK][dY][dPhe(4-Cl)][Lys(N3)]K(Palmitoyl)-NH2; triazole 1-6), in series [2] (setting [5]), the area under the curve AUC(0-inf) is 316 µM·h, the AUC(0-t) worked out at 213 µM·h, the peak level (Cmax) was 12 µM and the Tmax is 6 h. Besides, the half-life in series [2] (in vivo, mouse, 20 mg/kg IP, 4 mg/mL in PBS, terminal elimination phase inadequately defined) is 804 min. Further, in series [2] (setting [6]), the area under the curve AUC(0-inf) came out at 403 µM·h, the AUC(0-t) worked out at 402 µM·h, the Cmax turned out to be 252 µM and the Tmax amounted to 0 h. Also, in series [2] (setting [6]), the clearance was 0.587 mL/min/kg and the half-life is 163 min. The Vd in series [2] (in vivo, mouse, 20 mg/kg IV bolus, 4 mg/mL in PBS, read-out: Vdss) was found to be 0.0976 L/kg. In series [2] (setting [7]), the exposure AUC(0-t) amounted to 0.182 µM·h, the Cmax worked out at 0.033 µM, the Tmax was 4 h and the bioavailability came out at 0.018%. In addition, the exposure entry in series [2] (iv and ip administration, FIG. 14) is given as “sustained exposure”. For the same molecule, the tolerability entry in series [3] is on record as “well tolerated”.
In the case of `CCCCCCCCCCCCCCCC(=O)NCCCC[C@@H](NC(=O)[C@H]1CCCCn2cc(nn2)C[C@@H](NC(C)=O)C(=O)N[C@@H](Cc2c[nH]c3ccccc23)C(=O)N[C@@H](CCCCN)C(=O)N[C@@H](Cc2ccc(O)cc2)C(=O)N[C@@H](Cc2ccccc2)C(=O)N1)C(N)=O` [Ac-wkyf-Lys(Pal)] (Ac-[dPra]WKYF[dLys(N3)][dK](Palmitoyl)-NH2; triazole 1-6), the pERK inhibitory effect result with pERK in AsPC-1 cells is reported as “most inhibitory effects”. The “selectivity under spheroid culturing” value in series [4] (FIG. 2B, spheroid vs adherent culture, AsPC-1 (G12D) vs BxPC-3 (WT)) is listed as “selectivity persist under spheroid culturing”. Besides, the “reduction of cell viability, spheroid compared to adherent conditions” value in series [4] (FIGS. 2A-2B, CellTiter-Glo) is “more effective at reducing cell viability”.
